Assay results taken from patent US11415579B2, “Assay for measuring a rate of reaction between a target and a ligand candidate” (Imperial College Innovations Ltd., priority 2016, dated 2022).

How the values were obtained:
Cdk2(R122C) (C177A) = biological target: T1, Cdk2(R122C) (C177A) (Homo sapiens, UniProt P24941, C177A/R122C); experiment: Kinetic thiol consumption assay with Cdk2 mutant R122C; format: binding; set-up: key to Rate enhancement, Cdk2 R122C: rate constant with Cdk2 ÷ rate constant with model thiol (fold); settings: additional mutation C177A; for Rate constant with Cdk2 R122C: Protein: Cdk2, cysteine position R122C, in h-1
T1 construct: poly-histidine; made in house; host or cells: E. coli
How it was run: (§1)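 Read-out is fluorescence at 380/470 nm, taken after 1 h at room temperature and normalized to a DMSO/thiol-only control over time. Thiol (5 μM Cdk2 mutant or model thiol) was in degassed pH 8 phosphate buffer with 2% v/v TCEP beads. Acrylamide rate constants for Cdk2 were divided by those with model thiol.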

Cdk2(C177A, F80C) = biological target: T2, Cdk2(C177A, F80C) (Homo sapiens, UniProt P24941, C177A/F80C); experiment: Kinetic thiol consumption assay with Cdk2 mutant F80C, incl. kobs versus concentration (Kd, k2); format: binding; set-up: key to Rate enhancement, Cdk2 F80C: Cdk2 rate constant divided by model-thiol rate constant; settings: additional mutation C177A; for Rate constant with Cdk2 F80C: Protein: Cdk2, cysteine position F80C, in h^-1
T2 construct: poly-histidine; made in house; host or cells: E. coli
How it was run: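 His-tagged Cdk2(C177A/F80C) from E. coli or model thiol, 5 μM in degassed phosphate buffer pH 8 with TCEP beads, reacted with acrylamide ligands; fluorescence (ex/em 380/470 nm) normalized to DMSO control and fitted to first-order decay for kobs. Kd and k2 obtained from hyperbolic fit of kobs versus ligand concentration.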

[1] = Kinetic thiol consumption assay with model thiol glutathione; format: physicochemical; set-up: Rate constant with glutathione (k(GSH)): unit not given here; settings: for Rate constant with glutathione (k(GSH)): 500 μM ligand, 5 μM thiol, phosphate buffer pH 8; for Rate constant with Glutathione: Protein: Glutathione, cysteine position NA, in h-1
How it was run: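 First, 5 μM glutathione in degassed phosphate buffer (pH 8) receives immobilized TCEP beads (2% v/v). Then acrylamide is added and plates incubate 1 h at room temperature. Finally, fluorescence (380/470 nm) is normalized and fitted to first-order decay for rate constants.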

Cdk2(T182C) (C177A) = biological target: T3, Cdk2(T182C) (C177A) (Homo sapiens, UniProt P24941, C177A/T182C); experiment: Kinetic thiol consumption assay with Cdk2 mutant T182C; format: binding; set-up: key to Rate enhancement, Cdk2 T182C: rate constant with Cdk2 ÷ rate constant with model thiol (fold); settings: additional mutation C177A; for Rate constant with Cdk2 T182C: Protein: Cdk2, cysteine position T182C, in h^-1
T3 construct: poly-histidine; made in house; host or cells: E. coli
How it was run: as §1

Cdk2(N272C) (C177A) = biological target: T4, Cdk2(N272C) (C177A) (Homo sapiens, UniProt P24941, C177A/N272C); experiment: Kinetic thiol consumption assay with Cdk2 mutant N272C; format: binding; set-up: key to Rate enhancement, Cdk2 N272: rate constant with Cdk2 ÷ rate constant with model thiol (fold); settings: for Rate enhancement, Cdk2 N272: Cdk2 N272, additional mutation C177A; for Rate constant with Cdk2 N272C: Protein: Cdk2, cysteine position N272C, additional mutation C177A, in h^-1
T4 construct: poly-histidine; made in house; host or cells: E. coli
How it was run: as §1

Cdk2(S276C) (C177A) = biological target: T5, Cdk2(S276C) (C177A) (Homo sapiens, UniProt P24941, C177A/S276C); experiment: Kinetic thiol consumption assay with Cdk2 mutant S276C; format: binding; set-up: key to Rate enhancement, Cdk2 S276C: rate constant with Cdk2 ÷ rate constant with model thiol (fold); settings: additional mutation C177A; for Rate constant with Cdk2 S276C: Protein: Cdk2, cysteine position S276C, in h^-1
T5 construct: poly-histidine; made in house; host or cells: E. coli
How it was run: as §1

Cdk2(H71C) (C177A) = biological target: T6, Cdk2(H71C) (C177A) (Homo sapiens, UniProt P24941, C177A/H71C); experiment: Kinetic thiol consumption assay with Cdk2 mutant H71C; format: binding; set-up: key to Rate enhancement, Cdk2 H71C: rate constant with Cdk2 ÷ rate constant with model thiol (fold); settings: additional mutation C177A; for Rate constant with Cdk2 H71C: Protein: Cdk2, cysteine position H71C, in h^-1
T6 construct: poly-histidine; made in house; host or cells: E. coli
How it was run: as §1

Cdk2(S181C) (C177A) = biological target: T7, Cdk2(S181C) (C177A) (Homo sapiens, UniProt P24941, C177A/S181C); experiment: Kinetic thiol consumption assay with Cdk2 mutant S181C; format: binding; set-up: key to Rate enhancement, Cdk2 S181C: rate constant with Cdk2 ÷ rate constant with model thiol (fold); settings: additional mutation C177A; for Rate constant with Cdk2 S181C: Protein: Cdk2, cysteine position S181C, in h^-1
T7 construct: poly-histidine; made in house; host or cells: E. coli
How it was run: as §1

[2] = biological target: T8, human cyclin-dependent kinase 2 (Cdk2) (Homo sapiens, UniProt P24941); experiment: Kinetic thiol consumption assay with wild type Cdk2 (C177); format: binding; set-up: key to Rate enhancement, Cdk2 WT: k(Cdk2) divided by k(model thiol); Rate constant with Cdk2 (k(Cdk2)): unit not given here; settings: for Rate constant with Cdk2 (k(Cdk2)): 500 μM ligand, 5 μM thiol, phosphate buffer pH 8; for Rate enhancement, Cdk2 WT: no additional mutations; for Rate constant with Cdk2 WT: Protein: Cdk2, cysteine position WT, in h^-1; for k(Cdk2)/k(Cdk2_mut) rate enhancement: model thiol Cdk2[C177A, F80C, K278C]; for k(Cdk2)/k(GSH) rate enhancement: model thiol glutathione
T8 construct: poly-histidine; made in house; host or cells: E. coli
How it was run: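 Rate constants came from first-order exponential decay fits of normalized fluorescence against time, with thiol (5 μM) in degassed pH 8 phosphate buffer containing 2% v/v TCEP beads and reads after 1 h at room temperature.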

Cdk2[C177A, F80C, K278C] = biological target: T9, Cdk2[C177A, F80C, K278C] (Homo sapiens, UniProt P24941, C177A/F80C/K278C); experiment: Kinetic thiol consumption assay with mutant Cdk2 as model thiol; format: binding; set-up: unit not given here; settings: 500 μM ligand, 5 μM thiol, phosphate buffer pH 8
T9 construct: poly-histidine; made in house; host or cells: E. coli
How it was run: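 First-order rate constants were derived by exponential-decay fitting of DMSO/thiol-normalized fluorescence (380/470 nm) over time at room temperature. Thiol was 5 μM E. coli-expressed His-tagged Cdk2 mutant C177A/F80C/K278C in degassed pH 8 phosphate buffer containing 2% v/v TCEP beads.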

Compound | Rate enhancement, Cdk2 R122C (Cdk2(R122C) (C177A)) | Rate constant with Cdk2 R122C (Cdk2(R122C) (C177A)) | Rate enhancement, Cdk2 F80C (Cdk2(C177A, F80C)) | Rate constant with Cdk2 F80C (Cdk2(C177A, F80C)) | Rate enhancement, Cdk2 T182C (Cdk2(T182C) (C177A)) | Rate constant with Cdk2 T182C (Cdk2(T182C) (C177A)) | Rate enhancement, Cdk2 N272 (Cdk2(N272C) (C177A)) | Rate constant with Cdk2 N272C (Cdk2(N272C) (C177A)) | Rate enhancement, Cdk2 S276C (Cdk2(S276C) (C177A)) | Rate enhancement, Cdk2 H71C (Cdk2(H71C) (C177A)) | Rate enhancement, Cdk2 S181C (Cdk2(S181C) (C177A)) | Rate constant with Cdk2 S181C (Cdk2(S181C) (C177A)) | Rate constant with Cdk2 (k(Cdk2)) [2] | Rate enhancement, Cdk2 WT [2] | Rate constant with Cdk2 WT [2] | k(Cdk2)/k(Cdk2_mut) rate enhancement [2] | k(Cdk2)/k(GSH) rate enhancement [2] | Rate constant with Cdk2[C177A, F80C, K278C] (k(Cdk2_mut)) (Cdk2[C177A, F80C, K278C]) | Rate constant with glutathione (k(GSH)) [1] | Rate constant with Glutathione [1] | further results
C=CC(=O)Nc1ccc(C(=O)c2ccccc2)cc1 [CA-219] | 0.1738 | 0.01159 | 17.8 | 1.187 | 9.837 | 0.6559 | 0.8368 | 0.0558 | 1.204 | 0.5597 | 0.5975 | 0.03984 | 0.2317 | 3.475 | 0.2317 | 0.3223 | 3.556 | 0.7188 | 0.06515 | 0.06668 | Rate constant with Cdk2 S276C (Cdk2(S276C) (C177A)): 0.08025; Rate constant with Cdk2 H71C (Cdk2(H71C) (C177A)): 0.03732
C=CC(=O)N1CC(n2cccn2)C1 [CA-173] | 0.3379 | 0.005288 | 0.3401 | 0.005323 | 2.778 | 0.04347 | 0.6511 | 0.01019 | 1.187 | 0.1755 | 1.349 | 0.02111 | 0.00754 | 0.4816 | 0.007537 | 1.495 | 0.4779 | 0.00504 | 0.01577 | 0.01565 | Rate constant with Cdk2 S276C (Cdk2(S276C) (C177A)): 0.01857; Rate constant with Cdk2 H71C (Cdk2(H71C) (C177A)): 0.002746
C=CC(=O)N1CCN(c2cc(N3CCOCC3)ncn2)CC1 [CA-179] | 0.6453 | 0.004389 | 0.3927 | 0.002671 | 7.042 | 0.0479 | 0.4 | 0.002721 | 1.169 | 1.062 | 2.608 | 0.01774 | 0.0076 | 1.117 | 0.007599 | 1.056 | 1.112 | 0.00719 | 0.00683 | 0.006802 | Rate constant with Cdk2 S276C (Cdk2(S276C) (C177A)): 0.007953; Rate constant with Cdk2 H71C (Cdk2(H71C) (C177A)): 0.007227

Continued, in another order:

Rate enhancement, Cdk2 R122C (Cdk2(R122C) (C177A)) | Rate constant with Cdk2 R122C (Cdk2(R122C) (C177A)) | Rate enhancement, Cdk2 F80C (Cdk2(C177A, F80C)) | Rate constant with Cdk2 F80C (Cdk2(C177A, F80C)) | Rate enhancement, Cdk2 T182C (Cdk2(T182C) (C177A)) | Rate constant with Cdk2 T182C (Cdk2(T182C) (C177A)) | Rate enhancement, Cdk2 N272 (Cdk2(N272C) (C177A)) | Rate constant with Cdk2 N272C (Cdk2(N272C) (C177A)) | Rate enhancement, Cdk2 S276C (Cdk2(S276C) (C177A)) | Rate enhancement, Cdk2 H71C (Cdk2(H71C) (C177A)) | Rate enhancement, Cdk2 S181C (Cdk2(S181C) (C177A)) | Rate constant with Cdk2 S181C (Cdk2(S181C) (C177A)) | Rate constant with Cdk2 (k(Cdk2)) [2] | Rate enhancement, Cdk2 WT [2] | Rate constant with Cdk2 WT [2] | k(Cdk2)/k(Cdk2_mut) rate enhancement [2] | k(Cdk2)/k(GSH) rate enhancement [2] | Rate constant with Cdk2[C177A, F80C, K278C] (k(Cdk2_mut)) (Cdk2[C177A, F80C, K278C]) | Compound | Rate constant with glutathione (k(GSH)) [1] | Rate constant with Glutathione [1] | further results
0.2386 | 0.0043 | 0.09517 | 0.001715 | 0.5125 | 0.009235 | 0.2507 | 0.004517 | 0 | 0 | 0.1935 | 0.003487 | 0.00693 | 0.3847 | 0.006933 | 2.693 | 0.5009 | 0.00257 | C=CC(=O)N1CCC2(CCCN(Cc3ccccc3)C2)C1 (centres unmarked) [CA-141] | 0.01384 | 0.01802 | –
0.2711 | 0.007767 | 0.4705 | 0.01348 | 2 | 0.05729 | 0.5689 | 0.0163 | 0.7682 | 0.9714 | 0.4684 | 0.01342 | 0.01181 | 0.4122 | 0.01181 | 2.854 | 0.4129 | 0.00414 | C=CC(=O)N1CCN(S(C)(=O)=O)CC1c1ccccc1 (centres unmarked) [EL-1160] | 0.0286 | 0.02865 | Rate constant with Cdk2 S276C (Cdk2(S276C) (C177A)): 0.02201; Rate constant with Cdk2 H71C (Cdk2(H71C) (C177A)): 0.02783
2.269 | 0.1896 | 0.1058 | 0.008842 | 6.483 | 0.5417 | 7.163 | 0.5985 | 6.528 | 2.689 | 0.9146 | 0.07642 | 0.2634 | 3.152 | 0.2634 | 21.31 | 3.224 | 0.01236 | C=CC(=O)N1CCn2c(Cc3ccccc3)nnc2C1 [CA-092] | 0.0817 | 0.08356 | Rate constant with Cdk2 S276C (Cdk2(S276C) (C177A)): 0.5455; Rate constant with Cdk2 H71C (Cdk2(H71C) (C177A)): 0.2247; hit classification, Example 2 ([2]; significant rate enhancement against both model thiols (GSH and mutant Cdk2)): hits
